# Key:
# Assay type in all cases: in vitro ADME
# [1] = target: T1, CYP1A2 (Homo sapiens, UniProt P05177); assay: In vitro CYP substrate assessment (victim potential)
# T1 sequence (P05177 1-516): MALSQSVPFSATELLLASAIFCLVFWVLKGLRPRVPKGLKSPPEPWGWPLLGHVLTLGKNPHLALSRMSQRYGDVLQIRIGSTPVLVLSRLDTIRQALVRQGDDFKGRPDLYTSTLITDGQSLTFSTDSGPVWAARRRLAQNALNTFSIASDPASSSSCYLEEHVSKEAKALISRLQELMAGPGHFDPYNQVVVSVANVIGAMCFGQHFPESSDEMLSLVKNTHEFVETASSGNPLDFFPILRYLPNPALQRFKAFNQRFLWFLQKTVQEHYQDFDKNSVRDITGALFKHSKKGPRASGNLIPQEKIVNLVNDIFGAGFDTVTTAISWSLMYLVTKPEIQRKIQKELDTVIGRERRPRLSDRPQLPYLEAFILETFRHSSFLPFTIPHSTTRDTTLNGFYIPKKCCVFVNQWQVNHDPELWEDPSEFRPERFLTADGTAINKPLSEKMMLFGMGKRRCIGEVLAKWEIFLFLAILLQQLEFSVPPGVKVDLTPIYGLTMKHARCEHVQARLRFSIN
# [2] = target: CYP2C19 (Homo sapiens, UniProt P33261); assay: Direct and time-dependent CYP inhibition, pooled human liver microsomes; parameters: from tissue; host or cells: pooled human liver microsomes (n=200 donors)
# Protocol: (§1) “mM^”=millimolar. CYP induction was evaluated using cultured human hepatocytes (from 3 donors) treated once daily for 3 days with RE/R concentrations to […].
# (§2) The competitive inhibition of specific CYP isoforms was investigated for RVT-1201 and KAR5417 in human liver microsomes (HLM) (XT155056). Of the […] evaluated in vitro (CYP1A2, CYP2B6, CYP2C8, CYP2C9, CYP2D6, CYP3A4, CYP3A5), RVT-1201 IC50 estimates were determined for CYP2B6, CYP2C8 and CYP3A4 only. […] For each IC50 estimate, substrate concentration and Km were used to estimate RVT-1201 and KAR5417 Ki.
# [3] = target: T2, CYP2C8 (Homo sapiens, UniProt P10632); assay: as above; parameters: from tissue; host or cells: pooled human liver microsomes (n=200 donors); conditions: for IC50: human liver microsomes, read-out: In vitro IC50, direct inhibition, CYP2C8; for Calculated R1 Value, CYP2C8: predicted @ 600 mg BID, R1=1+(Imax,unbound/Ki)
# T2 sequence (P10632 1-490): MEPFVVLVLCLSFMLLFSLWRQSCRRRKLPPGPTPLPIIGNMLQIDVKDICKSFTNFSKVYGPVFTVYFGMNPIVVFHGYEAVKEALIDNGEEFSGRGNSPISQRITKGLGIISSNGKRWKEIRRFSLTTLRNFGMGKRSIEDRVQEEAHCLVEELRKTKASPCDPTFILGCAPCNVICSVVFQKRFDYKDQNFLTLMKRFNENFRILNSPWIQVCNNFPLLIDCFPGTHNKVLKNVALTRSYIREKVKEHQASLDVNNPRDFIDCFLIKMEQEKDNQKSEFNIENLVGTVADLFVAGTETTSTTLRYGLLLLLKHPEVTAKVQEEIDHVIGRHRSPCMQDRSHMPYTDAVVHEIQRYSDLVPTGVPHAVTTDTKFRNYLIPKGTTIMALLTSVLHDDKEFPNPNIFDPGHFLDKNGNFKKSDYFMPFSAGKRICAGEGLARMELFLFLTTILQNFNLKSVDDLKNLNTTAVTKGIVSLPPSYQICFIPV
# Protocol: as §1, §2
# [4] = target: CYP2D6 (Homo sapiens, UniProt P10635); assay: as above; parameters: from tissue; host or cells: pooled human liver microsomes (n=200 donors)
# Protocol: as §1, §2
# [5] = target: T3, CYP2B6 (Homo sapiens, UniProt P20813); assay: as above; parameters: from tissue; host or cells: pooled human liver microsomes (n=200 donors); conditions: for IC50: human liver microsomes, read-out: In vitro IC50, direct inhibition, CYP2B6
# T3 sequence (P20813 1-491): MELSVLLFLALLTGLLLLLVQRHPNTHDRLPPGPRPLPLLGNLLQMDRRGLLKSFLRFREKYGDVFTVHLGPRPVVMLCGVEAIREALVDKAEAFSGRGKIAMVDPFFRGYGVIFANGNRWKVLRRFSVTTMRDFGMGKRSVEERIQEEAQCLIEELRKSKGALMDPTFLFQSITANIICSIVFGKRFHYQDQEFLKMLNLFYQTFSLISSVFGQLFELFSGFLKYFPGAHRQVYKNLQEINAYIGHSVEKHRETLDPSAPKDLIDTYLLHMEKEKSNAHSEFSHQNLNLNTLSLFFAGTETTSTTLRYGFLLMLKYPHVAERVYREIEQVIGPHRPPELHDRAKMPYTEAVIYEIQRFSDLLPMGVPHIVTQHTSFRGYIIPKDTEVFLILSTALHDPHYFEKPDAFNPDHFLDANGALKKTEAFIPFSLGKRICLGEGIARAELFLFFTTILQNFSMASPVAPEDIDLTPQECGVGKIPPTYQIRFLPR
# Protocol: as §1, §2
# [6] = target: CYP2C9 (Homo sapiens, UniProt P11712); assay: as above; parameters: from tissue; host or cells: pooled human liver microsomes (n=200 donors); conditions: for IC50: human liver microsomes, read-out: In vitro IC50, direct inhibition, CYP2C9
# Protocol: as §1, §2
# [7] = target: T1, CYP1A2; assay: as above; parameters: from tissue; host or cells: pooled human liver microsomes (n=200 donors)
# Protocol: as §1, §2
# [8] = human, pooled human liver microsomes, 30 μM, range given across CYPs 2B6, 2C9 and 3A4/5
# CYP2C9, sequence (P11712 whole entry): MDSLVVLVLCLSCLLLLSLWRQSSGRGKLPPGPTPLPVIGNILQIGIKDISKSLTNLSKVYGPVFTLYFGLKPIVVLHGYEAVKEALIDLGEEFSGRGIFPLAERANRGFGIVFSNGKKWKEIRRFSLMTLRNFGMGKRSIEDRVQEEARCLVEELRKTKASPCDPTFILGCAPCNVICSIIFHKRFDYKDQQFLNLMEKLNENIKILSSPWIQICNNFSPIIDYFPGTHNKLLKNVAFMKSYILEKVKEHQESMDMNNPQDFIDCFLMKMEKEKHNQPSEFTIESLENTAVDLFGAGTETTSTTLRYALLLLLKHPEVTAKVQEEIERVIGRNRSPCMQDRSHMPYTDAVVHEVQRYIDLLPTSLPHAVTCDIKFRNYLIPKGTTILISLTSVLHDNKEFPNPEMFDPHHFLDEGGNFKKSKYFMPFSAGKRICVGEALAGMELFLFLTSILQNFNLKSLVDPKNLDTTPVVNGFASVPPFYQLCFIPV
# CYP2D6, sequence (P10635 whole entry): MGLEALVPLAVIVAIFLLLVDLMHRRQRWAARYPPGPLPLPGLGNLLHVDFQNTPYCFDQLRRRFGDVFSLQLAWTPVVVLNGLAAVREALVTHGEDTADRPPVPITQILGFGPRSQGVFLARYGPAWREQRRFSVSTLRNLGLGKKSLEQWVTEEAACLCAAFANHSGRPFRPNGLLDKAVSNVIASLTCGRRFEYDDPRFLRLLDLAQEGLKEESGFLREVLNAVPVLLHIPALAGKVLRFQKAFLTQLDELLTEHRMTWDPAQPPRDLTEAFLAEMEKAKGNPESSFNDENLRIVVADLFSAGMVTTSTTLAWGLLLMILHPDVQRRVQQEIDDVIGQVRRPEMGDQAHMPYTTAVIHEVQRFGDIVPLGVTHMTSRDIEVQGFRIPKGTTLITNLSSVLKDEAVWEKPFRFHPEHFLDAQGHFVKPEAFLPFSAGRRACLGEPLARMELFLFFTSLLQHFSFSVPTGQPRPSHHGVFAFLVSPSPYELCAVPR
# CYP2C19, sequence (P33261 whole entry): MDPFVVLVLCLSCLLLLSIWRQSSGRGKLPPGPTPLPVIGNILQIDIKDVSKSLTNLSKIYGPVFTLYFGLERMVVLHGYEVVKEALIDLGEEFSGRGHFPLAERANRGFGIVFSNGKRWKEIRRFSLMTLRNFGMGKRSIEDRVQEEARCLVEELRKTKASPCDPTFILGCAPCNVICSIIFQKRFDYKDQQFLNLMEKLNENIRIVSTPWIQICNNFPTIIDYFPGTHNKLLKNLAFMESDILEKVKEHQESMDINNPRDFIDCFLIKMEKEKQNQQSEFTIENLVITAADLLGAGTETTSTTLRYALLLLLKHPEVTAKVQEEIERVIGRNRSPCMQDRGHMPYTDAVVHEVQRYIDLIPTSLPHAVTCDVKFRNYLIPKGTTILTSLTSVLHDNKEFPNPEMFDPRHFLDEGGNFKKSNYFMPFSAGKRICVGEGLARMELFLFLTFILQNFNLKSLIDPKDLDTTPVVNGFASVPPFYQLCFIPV
In vitro substrate? CYP1A2 [1],"IC50 ([2]; human liver microsomes, read-out: In vitro IC50, direct inhibition, CYP2C19) [µM]",IC50 [3] [µM],"Calculated R1 Value, CYP2C8 [3]","IC50 ([4]; human liver microsomes, read-out: In vitro IC50, direct inhibition, CYP2D6) [µM]",IC50 [5] [µM],"Calculated R1 Value, CYP2B6 ([5]; predicted @ 600 mg BID, R1=1+(Imax,unbound/Ki))",IC50 [6] [µM],"IC50 ([7]; human liver microsomes, read-out: In vitro IC50, direct inhibition, CYP1A2) [µM]",Direct inhibition of CYP2C19 (in words) [2],Ki ([3]; equivalent to IC50/2) [µM],"Calculated R1 Value, CYP2C8 ([3]; listed as rodatristat)",Direct inhibition of CYP2D6 (in words) [4],"inhibition at 30 µM [5, 8] [%]","inhibition at 30 µM [6, 8] [%]",Direct inhibition of CYP1A2 (in words) [7],SMILES,Direct inhibition of CYP2C9 (in words) [6]
No,> 30,2.8,<1.02,> 30,13,<1.02,> 30,> 30,–,–,–,–,–,–,–,"CCOC(=O)[C@@H]1CC2(CCN(c3cc(O[C@H](c4ccc(Cl)cc4-c4ccccc4)C(F)(F)F)nc(N)n3)CC2)CN1 [Rodatristat ethyl, (S)-ethyl 8-(2-amino-6-((R)-1-(5-chloro-[1,1′-biphenyl]-2-yl)-2,2,2-trifluoroethoxy)pyrimidin-4-yl)-2,8-diazaspiro[4.5]decane-3-carboxylate]",Neither rodatristat ethyl nor rodatristat inhibit
No,–,2.8,<1.02,–,> 30,–,> 30,–,did not inhibit,1.4,<1.02,did not inhibit,27 to 45,27 to 45,did not inhibit,"Nc1nc(O[C@H](c2ccc(Cl)cc2-c2ccccc2)C(F)(F)F)cc(N2CCC3(CC2)CN[C@H](C(=O)O)C3)n1 [Rodatristat, (S)-8-(2-amino-6-((R)-1-(5-chloro-[1,1′-biphenyl]-2-yl)-2,2,2-trifluoroeth-oxy)pyrimidin-4-yl)-2,8-diazaspiro[4.5]decane-3-carboxylic acid]",Neither rodatristat ethyl nor rodatristat inhibit

# Reference: patent US20230074252A1, “DOSAGES AND METHODS FOR TREATING PULMONARY ARTERIAL HYPERTENSION WITH RODATRISTAT” (Altavant Sciences GmbH, priority 2020, published 2023)
